# “And” between values parts separate entries of the source, which are not always exact repeats. Identical values can stand only once.
# Experiments:
# Conditions in all cases: incubation time: 72 h
# HCC1599 [1] = assay: normalised response (% of control), CellTiter-Glo; higher = more viable cells (100 = DMSO, 0 = benzethonium chloride kill control)
# Method: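 DSRT, 72 h incubation, CellTox Green / CellTiter-Glo readout. Signal is normalised to DMSO and benzethonium chloride controls. Value is the normalised response at the highest dose.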
# CAL-148 = assay: normalised viability (% of control), CellTiter-Blue; higher = more viable cells (about 100 = DMSO control)
# Method: (§1)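 DSRT, CellTiter-Blue viability, 72 h incubation. Signal is normalised to DMSO and benzethonium chloride controls. Value is the normalised response at dose 7.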
# CAL-51 = assay: as above
# Method: as §1
# CAL-85-1 = assay: as above
# Method: as §1
# DU-4475 = assay: as above
# Method: as §1
# HDQ-P1 = assay: as above
# Method: as §1
# MDA-MB-453 [2] = assay: as above
# Method: as §1
# BT-474 = assay: normalised response (% of control), CellTiter-Glo; higher = more viable cells (100 = DMSO, 0 = benzethonium chloride kill control)
# Procedure, shortened: (§2)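 After 72 h with compound in 384-well plates, breast cancer cell lines seeded as 20 µl suspension were read for CellTox Green fluorescence at 485/520 nm. CellTiter-Glo luminescence was then read after 10 min at room temperature. Compound was present at 5 concentrations in 10-fold steps over a 10,000-fold range set per compound, and plates were normalised to 0.1 % DMSO (100) and a positive kill control (0). Values are normalised signals, each at a single concentration.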
# BT-549 = assay: as above
# Procedure, shortened: as §2
# HCC1143 = assay: as above
# Procedure, shortened: as §2
# HCC1599 [3] = assay: as above; remark: listed apart in the source
# Procedure, shortened: as §2
# Hs578T = assay: as above
# Procedure, shortened: as §2
# MCF-10A = assay: as above
# Procedure, shortened: as §2
# MDA-MB-231 = assay: as above
# Procedure, shortened: as §2
# MDA-MB-453 [4] = assay: as above
# Procedure, shortened: as §2
# MFM-223 = assay: as above
# Procedure, shortened: as §2
Compound,normalised response (HCC1599 [1]) [%],normalised viability (CAL-148),normalised viability (CAL-51),normalised viability (CAL-85-1),normalised viability (DU-4475),normalised viability (HDQ-P1),normalised viability (MDA-MB-453 [2]),normalised response (BT-474) [%],normalised response (BT-549) [%],normalised response (HCC1143) [%],normalised response (HCC1599 [3]) [%],normalised response (Hs578T) [%],normalised response (MCF-10A) [%],normalised response (MDA-MB-231) [%],normalised response (MDA-MB-453 [4]) [%],normalised response (MFM-223) [%]
COc1cc(Nc2c(C#N)cnc3cc(OCCCN4CCN(C)CC4)c(OC)cc23)c(Cl)cc1Cl [Bosutinib] (10000 nM),13.5,,,,,,,,,,,,,,,
Nc1ccn([C@@H]2O[C@H](CO)[C@@H](O)C2(F)F)c(=O)n1 [Gemcitabine] (1000 nM),41.4,,,,,,,,,,,,,,,
Cc1cn(-c2cc(NC(=O)c3ccc(C)c(Nc4nccc(-c5cccnc5)n4)c3)cc(C(F)(F)F)c2)cn1 [Nilotinib] (10000 nM),119,,,,,,,,,,,,,,,
CC1(C)CCC(c2ccc(Cl)cc2)=C(CN2CCN(c3ccc(C(=O)NS(=O)(=O)c4ccc(N[C@H](CCN5CCOCC5)CSc5ccccc5)c(S(=O)(=O)C(F)(F)F)c4)cc3)CC2)C1 [Navitoclax] (10000 nM),93.1,,,,,,,,,,,,,,,
CCNC(=O)CCC/C=C\C[C@@H]1[C@@H](/C=C/[C@@H](O)CCc2ccccc2)[C@H](O)C[C@@H]1O [Bimatoprost] (550 nM),,95.9%,118%,94.2%,104%,93.3%,91.1%,96.7,104,92.5,105,93,102,97.1,93.2,90.3
CCNC(=O)c1noc(-c2cc(C(C)C)c(O)cc2O)c1-c1ccc(CN2CCOCC2)cc1 [NVP-AUY922] (1000 nM),77,,,,,,,,,,,,,,,
CC(C)(C)NC(=O)[C@H]1CC[C@H]2[C@@H]3CC[C@H]4NC(=O)C=C[C@]4(C)[C@H]3CC[C@]12C [Finasteride] (1000 nM),,103%,109%,98.4%,113%,118%,106%,98.9,90.7,96.6,113,96.6,104,95.2,103,103
CC1(C)CCC(c2ccc(Cl)cc2)=C(CN2CCN(c3ccc(C(=O)NS(=O)(=O)c4ccc(N[C@H](CCN5CCOCC5)CSc5ccccc5)c(S(=O)(=O)C(F)(F)F)c4)cc3)CC2)C1 [Navitoclax] (1000 nM),,80.1%,97.6%,81.2%,40.2%,68.2%,75.5%,58.1,92.5,82.9,97.3,93.1,97.8,49.2,80.9,85.8
Cc1cc(Nc2nc(N[C@@H](C)c3ncc(F)cn3)ncc2Cl)[nH]n1 [AZD1480] (100 nM),,105%,108%,82.2%,93.2%,98.6%,105%,99.7,105,107,111,101,93.4,97.8,94.1,71.9
Cc1cn(-c2cc(NC(=O)c3ccc(C)c(Nc4nccc(-c5cccnc5)n4)c3)cc(C(F)(F)F)c2)cn1 [Nilotinib] (1000 nM),,93.5% and 93.9%,107% and 117%,84.7% and 89.2%,113% and 98.9%,91.7% and 81.1%,88.3% and 97.5%,92.9,109,94,105,105,107,96.5,105,97.3
Nc1ccn([C@@H]2O[C@H](CO)[C@@H](O)C2(F)F)c(=O)n1 [Gemcitabine] (100 nM),,33.7%,16.3%,49.8%,45.1%,92.3%,48.3%,81.8,49.7,44.1,39,70,66.7,85,67.7,101
Cn1cc(C2=C(c3cn(C4CCN(Cc5ccccn5)CC4)c4ccccc34)C(=O)NC2=O)c2ccccc21 [Enzastaurin] (1000 nM),,73%,90.4%,83.7%,91.7%,81.2%,62.8%,93.1,95.8,92.4,95.8,104,91.6,100,96.1,97.5
COc1ccc(S(=O)(=O)Nc2cccnc2Nc2ccc(O)cc2)cc1 [ABT-751] (10000 nM),16.5,,,,,,,,,,,,,,,
CC(=O)[C@]1(O)Cc2c(O)c3c(c(O)c2[C@@H](O[C@H]2C[C@H](N)[C@H](O)[C@H](C)O2)C1)C(=O)c1ccccc1C3=O [Idarubicin] (1000 nM),7.7,,,,,,,,,,,,,,,
CO[C@@H]1[C@H](N(C)C(=O)c2ccccc2)C[C@H]2O[C@]1(C)n1c3ccccc3c3c4c(c5c6ccccc6n2c5c31)C(=O)NC4 [Midostaurin] (1000 nM),,82.2%,14.5%,81.1%,8.53%,52.8%,67.9%,52.1,32.6,55.9,94.5,26.1,27.8,50.3,120,75.8
C=CCn1c(=O)c2cnc(Nc3ccc(N4CCN(C)CC4)cc3)nc2n1-c1cccc(C(C)(C)O)n1 [MK1775] (1000 nM),,9.04%,16.6%,40.5%,32.2%,47.8%,23.2%,33.3,21.2,43.2,7.3,30,47.6,23.6,50.1,41.2
Cn1cc(C2=C(c3cn(C4CCN(Cc5ccccn5)CC4)c4ccccc34)C(=O)NC2=O)c2ccccc21 [Enzastaurin] (10000 nM),78.2,,,,,,,,,,,,,,,
CC(C)C[C@H](NC(=O)[C@@H](COC(C)(C)C)NC(=O)[C@H](Cc1ccc(O)cc1)NC(=O)[C@H](CO)NC(=O)[C@H](Cc1c[nH]c2ccccc12)NC(=O)[C@H](Cc1cnc[nH]1)NC(=O)[C@@H]1CCC(=O)N1)C(=O)N[C@@H](CCCNC(=N)N)C(=O)N1CCC[C@H]1C(=O)NNC(N)=O [Goserelin] (1000 nM),,97.1%,108%,93.2%,102%,96.9%,96%,101,98.6,92.3,106,99.4,96.5,100,106,99.6
CO[C@@]12[C@H](COC(N)=O)C3=C(C(=O)C(C)=C(N)C3=O)N1C[C@@H]1N[C@@H]12 [Mitomycin C] (1000 nM),,96.3%,108%,77.2%,95.6%,88.9%,91.4%,90.2,65.7,99.4,84.2,102,93,97.4,97.9,90.1
CC(O)(CS(=O)(=O)c1ccc(F)cc1)C(=O)Nc1ccc(C#N)c(C(F)(F)F)c1 (centres undefined) [Bicalutamide] (10000 nM),95.5,,,,,,,,,,,,,,,
CCNC(=O)CCC/C=C\C[C@@H]1[C@@H](/C=C/[C@@H](O)CCc2ccccc2)[C@H](O)C[C@@H]1O [Bimatoprost] (5500 nM),89.5,,,,,,,,,,,,,,,
CC(C)(C)NC(=O)[C@H]1CC[C@H]2[C@@H]3CC[C@H]4NC(=O)C=C[C@]4(C)[C@H]3CC[C@]12C [Finasteride] (10000 nM),97,,,,,,,,,,,,,,,
Cc1cc(Nc2nc(N[C@@H](C)c3ncc(F)cn3)ncc2Cl)[nH]n1 [AZD1480] (1000 nM),104,,,,,,,,,,,,,,,
CC(C)C[C@H](NC(=O)[C@@H](COC(C)(C)C)NC(=O)[C@H](Cc1ccc(O)cc1)NC(=O)[C@H](CO)NC(=O)[C@H](Cc1c[nH]c2ccccc12)NC(=O)[C@H](Cc1cnc[nH]1)NC(=O)[C@@H]1CCC(=O)N1)C(=O)N[C@@H](CCCNC(=N)N)C(=O)N1CCC[C@H]1C(=O)NNC(N)=O [Goserelin] (10000 nM),97.5,,,,,,,,,,,,,,,
CNC(=O)c1ccccc1Sc1ccc2c(/C=C/c3ccccn3)n[nH]c2c1 [Axitinib] (10000 nM),69,,,,,,,,,,,,,,,
O=C(CCCCCCC(=O)Nc1ccccc1)NO [Vorinostat] (10000 nM),8.35,,,,,,,,,,,,,,,
CO[C@@]12[C@H](COC(N)=O)C3=C(C(=O)C(C)=C(N)C3=O)N1C[C@@H]1N[C@@H]12 [Mitomycin C] (10000 nM),57.4,,,,,,,,,,,,,,,
C=CCn1c(=O)c2cnc(Nc3ccc(N4CCN(C)CC4)cc3)nc2n1-c1cccc(C(C)(C)O)n1 [MK1775] (10000 nM),4.65,,,,,,,,,,,,,,,
C/C(=C\c1csc(C)n1)[C@@H]1C[C@@H]2O[C@]2(C)CCC[C@H](C)[C@H](O)[C@@H](C)C(=O)C(C)(C)[C@@H](O)CC(=O)N1 [Ixabepilone] (1000 nM),115,,,,,,,,,,,,,,,
CO[C@@H]1[C@H](N(C)C(=O)c2ccccc2)C[C@H]2O[C@]1(C)n1c3ccccc3c3c4c(c5c6ccccc6n2c5c31)C(=O)NC4 [Midostaurin] (10000 nM),102,,,,,,,,,,,,,,,
